In US20090227606A1, “Methods for Preventing or Treating Acute and Chronic Pain” (priority 2006, published 2009):
Entries after “also recorded” stand apart in the source; their conditions may differ. Like-named read-outs stand apart in the source and are kept apart here.

What was measured:
GLT-1 = settings: Zelenaia et al. 2000, cited from earlier work; for effect on db-cAMP-dependent GLT-1 expression: db-cAMP-treated astrocytes; for GLT-1 induction in cultured astrocytes: Schlag et al. 1998
[1] = test system: primary cultured astrocytes; assay: Astrocyte morphology and process length, phase contrast microscopy; format: cell-based, rat
Method: Astrocyte cultures were prepared from the cortices of neonatal rats (1-3 days old) using the Worthington Papain Dissociation System (Worthington Biochemical Corporation, Lakewood, N.J.) according to the method of Huettner and Baughman (1986. J. Neurosci. 6:3044-3060). Briefly, cortices of neonatal rats were dissected, treated with papain (20 U/ml), dissociated by trituration and plated in 75 cm^2 flasks in Dulbecco's modified Eagle's medium (DMEM) supplemented with 10% charcoal-stripped fetal bovine serum (FBS), 1% GlutaMax and 1% penicillin/streptomycin (P/S, 100 U/ml penicillin, 100 μg/ml streptomycin, P/S). Cells were fed twice weekly until they reached confluence (Day in vitro, DIV 10-12) at which point they were mechanically shaken for 1 hr on an orbital shaker to remove any remaining oligodendrocytes and microglia. Subsequently, cultures were treated with trypsin for 30 minutes at 37° C. and re-plated into 6 or 12-well dishes at a density of about 3.0×10^4 cells/cm^2. Resultant cultures were greater than 95% astrocytic as determined by GFAP immunostaining.
(§1) After approximately 14 days (2 days after subplating into plates, DIV 14) astrocytes had formed a confluent monolayer. […] Phase contrast microscopy was then carried out in order to assess the morphology of cells after the various treatments. Length of astrocyte processes was quantified by measuring all processes in 2-3 phase contrast images/group by an independent observer, blinded to the treatment groups using Image J v1.34s (National Institutes of Health, Bethesda, Md.).

GLAST [2] = assay: Immunocytochemistry of cultured astrocytes, GLAST staining; format: cell-based, rat; settings: treated astrocytes
Method: Primary astrocyte-enriched cultures were plated onto sterile 18 mm glass coverslips. After three washes in PBS, cells were permeabilized in 5% glacial acetic acid/95% ethanol (acid-alcohol) for 10 minutes. After washing, cells were incubated in a 1% normal goat serum for 30 minutes and then overnight at 4° C. in primary mouse anti-GFAP (1:500), rabbit anti-GLT-1 (1:500) or guinea pig anti-GLAST (1:2000). The following day, cells were washed and then incubated for 2 hours at room temperature with goat anti-mouse Alexa Fluor™-555 (Invitrogen Corporation, Carlsbad, Calif.) goat anti-guinea pig Alexa Fluor™-488 (Invitrogen Corporation, Carlsbad, Calif.) or goat anti-rabbit Alexa Fluor™-488 (Invitrogen Corporation, Carlsbad, Calif.; all at 1:250). Finally, cells were post-fixed in acid-alcohol and mounted with Vectashield (Vector Labs, Burlingame, Calif.) containing 4′,6-diamidino-2-phenylindole dihydrochloride hydrate (DAPI, Sigma Chemical Co., St Louis, Mo.), in order to visualize cell nuclei. The sections were examined with a fluorescence microscope, and images were captured with a Q-Fire cooled camera (Olympus, Melville, N.Y.). Confocal microscopy was also performed using a Zeiss LSM 510 Meta confocal microscope (Carl Zeiss AG, Oberkochen, Germany). Merged color images were processed using Adobe Photoshop 7.0 (Adobe Systems, San Jose, Calif.).

GLT-1 mRNA = assay: Real Time RT-PCR of cultured astrocytes, GLT-1 mRNA; format: cell-based, rat; settings: propentofylline 10, 100, 1000 μM; db-cAMP 250 μM; relative to GAPDH
Method: as §1
(§2) Total RNA was isolated from astrocyte cultures using the Qiagen RNeasy mini-kit (Qiagen Inc., Valencia, Calif.) according to the manufacturer's protocol for isolation of total RNA from animal cells. Reverse transcription (RT) was carried out using the high-capacity cDNA archive kit (Applied Biosystems, Foster City, Calif.) according to the vendor's protocol. Real-time RT-PCR reactions were carried out in a total reaction volume of 25 μL containing a final concentration of 1.5 U Platinum Taq DNA polymerase (Invitrogen Corporation, Carlsbad, Calif.); 20 mM Tris HCl (pH 8.4); 50 mM KCl; 3 mM MgCl2; 200 μM dGTP, dCTP, and dATP; 400 μM dUTP and 1 U of UDG (uracyl DNA glycosylase); 900 nM of forward and reverse primers; 300 nM Taqman probe; and 5 μL of cDNA (50 ng) from the RT step. The iCycler™ Multicolor Real-Time PCR detection system (Bio-Rad Laboratories, Hercules, Calif.) was used to quantify PCR product. The fluorescence and threshold values (CT) obtained were used to compare the relative amount of target mRNA in experimental groups to those of controls using the 2^−ΔΔC^T method (Livak, K. J. and T. D. Schmittgen. 2001. Methods 25:402-408). Each experiment was run twice and samples were run in duplicate. For each sample, the mean CT value for the control gene (GAPDH) was then subtracted from the mean CT value for the gene of interest (GLT-1, GLAST) to obtain a ΔCT value. The ΔCT values for the control group (untreated) were then averaged and subtracted from the ΔCT for the experimental groups to obtain the ΔΔCT. The relative fold change from control was then expressed by calculation of 2^−ΔΔC^T for each sample and the results are expressed as the group mean fold change±SEM.

GLAST mRNA = assay: Real Time RT-PCR of cultured astrocytes, GLAST mRNA; format: cell-based, rat; settings: propentofylline 10, 100, 1000 μM; db-cAMP 250 μM; relative to GAPDH
Method: as §1
as §2, with “The ΔCT values for the control group (untreated) were then averaged and subtracted from the ΔCT for the experimental groups to obtain the ΔΔCT.” left out

GLAST [3] = assay: Western blot of cultured astrocytes, GLAST protein; format: cell-based, rat; settings: 3 or 7 days, normalized to β-actin
Method: as §1
Cells were scraped into PBS containing a protease inhibitor cocktail (1:1000, Sigma Chemical Co., St. Louis, Mo.) and then lysed by sonication in 5 one-second pulses. The samples were stored at −80° C. until use. Total protein was determined using the Lowry method (DC assay, Bio-Rad, Hercules, Calif.). Forty micrograms of protein (diluted in sample buffer and boiled) and standard protein markers were subjected to SDS/7.5% polyacrylamide gel electrophoresis and transferred to polyvinylidene difluoride (PVDF) membranes. Nonspecific binding was blocked by incubation with 5% milk/PBS-Tween at room temperature for 1 hour followed by incubation overnight at 4° C. with rabbit anti-GLT-1 (1:500) or guinea pig anti-GLAST (1:2500). The following day, blots were washed and incubated for 1 hour at room temperature with goat anti-rabbit HRP-conjugated secondary (1:3000) or goat anti-guinea pig HRP-conjugated secondary antibody (1:5000) and visualized with enhanced chemiluminescence (ECL). Images were obtained using the Typhoon Imaging System (Amersham-GE Healthcare, Piscataway, N.J.). Finally, blots were incubated for 15 minutes in stripping buffer and reprobed with a monoclonal mouse anti-β-actin antibody (1:10,000) as a loading control. Densitometric analysis was performed using ImageQuant 5.2 (Molecular Dynamics, GE Healthcare, Piscataway, N.J.).

MIP-2 (CXCL2) = assay: ELISA of MIP-2 release from cultured astrocytes; format: cell-based, rat; settings: seven days, LPS 1 μg/ml; propentofylline 1000 μM; db-cAMP 250 μM
Method: as §1
(§3) Standard ELISA was performed for quantitative determination of MCP-1 and MIP-2 protein in cell culture supernatant. Assays were carried out according to the manufacturer's specifications (Biosource, Camarillo, Calif.) using the sandwich enzyme immunoassay procedure. Optical density at 450 nm was obtained using the MRX Revelations program (Dynex Technologies, Chantilly, Va.) and relative protein concentrations were determined by comparing samples to the standard curve generated.

MCP-1 (CCL2) = assay: ELISA of MCP-1 release from cultured astrocytes; format: cell-based, rat; settings: seven days
Method: as §1, §3

[4] = test system: Na+-dependent glutamate transport; settings: db-cAMP, Schlag et al. 1998; cited from earlier work

## CCCCCCOC(=O)[C@]1(O)C[C@@H]2O[C@@]1(C)n1c3ccccc3c3c4c(c5c6ccccc6n2c5c31)C(=O)NC4 [KT5720]
GLT-1
  effect on db-cAMP-dependent GLT-1 expression: blocks induction of GLT-1 protein

## COc1cccc(-c2cc(=O)c3ccccc3o2)c1N [PD98059]
GLT-1
  effect on db-cAMP-dependent GLT-1 expression: partially attenuates

## S=C(S)N1CCCC1 [PDTC]
GLT-1
  effect on db-cAMP-dependent GLT-1 expression: inhibited db-cAMP-mediated increases in GLT-1 expression

## CCCC(=O)Nc1ncnc2c1ncn2[C@@H]1O[C@@H]2COP(=O)(O)O[C@H]2[C@H]1OC(=O)CCC [db-cAMP, dibutyryl cyclic-adenosine-5′,3′-monophosphate]
[1]; 3 days or 7 days of treatment, phase contrast microscopy
  astrocyte morphology: extend fewer, longer processes
[1]; 7 days, 250 μM db-cAMP vs. 1000 μM propentofylline
  length of astrocyte processes: significantly longer processes than propentofylline; also recorded: significantly longer processes than PPF
GLAST [2]
  GLAST staining: slightly increased GLAST staining
GLT-1 mRNA
  GLT-1 mRNA level, in words: mimicked
GLAST mRNA
  GLAST mRNA level, in words: mimicked
GLAST [3]
  GLAST protein level, in words: greater increase in GLAST than high dose propentofylline
MIP-2 (CXCL2)
  LPS-induced MIP-2 (CXCL2) release: had no effect on LPS-induced chemokine release
MCP-1 (CCL2); LPS 1 μg/ml, propentofylline 1000 μM, db-cAMP 250 μM
  LPS-induced MCP-1 (CCL2) release: had no effect on LPS-induced chemokine release
MCP-1 (CCL2); without LPS
  basal MCP-1 (CCL2) release, treatment alone: significantly increased MCP-1 (CCL2) above basal levels
[4]
  increase in glutamate transport activity: 2 fold
  sensitivity of increased glutamate uptake to DHK: DHK-insensitive
GLT-1
  GLT-1 induction in cultured astrocytes: induced high levels of GLT-1 protein expression
GLT-1; listed as dibutyryl-cAMP
  GLT-1 induction in cultured astrocytes: induce astrocytic maturation and GLT-1 induction
